From patent publication US9546156B2, “N-bicyclic aryl,N'-pyrazolyl urea, thiourea, guanidine cyanoguanidine compounds as TrkA kinase inhibitors” (Array BioPharma Inc., priority 2012, dated 2017)

How the values were obtained:
Assay in all cases: Off-target kinase profiling (KinaseProfiler)
Type in all cases: biochemical
Conditions in all cases: 10 μM, ATP near Km
CAMK2b = target: T1, CAMK2b (Homo sapiens, UniProt Q13554)
T1 construct: purchased Millipore, Inc. (KinaseProfiler service)
Method in brief: (§1)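 Duplicate reactions per kinase contained 10 μM compound and ATP at approximately the enzyme-specific Km; the mean remaining activity, given as percent of control, is listed.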

Pim-2 = target: T2, Pim-2 (Homo sapiens, UniProt Q9P1W9)
T2 construct: purchased Millipore, Inc. (KinaseProfiler service)
Method in brief: as §1

MAP3K5 = target: T3, MAP3K5 (Homo sapiens, UniProt Q99683)
T3 construct: purchased Millipore, Inc. (KinaseProfiler service)
Method in brief: as §1

CAMK2g = target: T4, CAMK2g (Homo sapiens, UniProt Q13555)
T4 construct: purchased Millipore, Inc. (KinaseProfiler service)
Method in brief: as §1

AKT3 = target: T5, AKT3 (Homo sapiens, UniProt Q9Y243)
T5 construct: purchased Millipore, Inc. (KinaseProfiler service)
Method in brief: as §1

MARK2 = target: T6, MARK2 (Homo sapiens, UniProt Q7KZI7)
T6 construct: purchased Millipore, Inc. (KinaseProfiler service)
Method in brief: as §1

CAMK1d = target: T7, CAMK1d (Homo sapiens, UniProt Q8IU85)
T7 construct: purchased Millipore, Inc. (KinaseProfiler service)
Method in brief: as §1

EphA2 = target: T8, EphA2 (Homo sapiens, UniProt P29317)
T8 construct: purchased Millipore, Inc. (KinaseProfiler service)
Method in brief: as §1

p38beta = target: T9, p38beta (Homo sapiens, UniProt Q15759)
T9 construct: purchased Millipore, Inc. (KinaseProfiler service)
Method in brief: as §1

Bmx = target: T10, Bmx (Homo sapiens, UniProt P51813)
T10 construct: purchased Millipore, Inc. (KinaseProfiler service)
Method in brief: as §1

Pim-3 = target: T11, Pim-3 (Homo sapiens, UniProt Q86V86)
T11 construct: purchased Millipore, Inc. (KinaseProfiler service)
Method in brief: as §1

Fgr = target: T12, Fgr (Homo sapiens, UniProt P09769)
T12 construct: purchased Millipore, Inc. (KinaseProfiler service)
Method in brief: as §1

p38alpha = target: T13, p38alpha (Homo sapiens, UniProt Q16539)
T13 construct: purchased Millipore, Inc. (KinaseProfiler service)
Method in brief: as §1

PKD2 = target: T14, PKD2 (Homo sapiens, UniProt Q9BZL6)
T14 construct: purchased Millipore, Inc. (KinaseProfiler service)
Method in brief: as §1

ULK3 = target: T15, ULK3 (Homo sapiens, UniProt Q6PHR2)
T15 construct: purchased Millipore, Inc. (KinaseProfiler service)
Method in brief: as §1

CDK2/cyclinE = target: T16, CDK2/cyclinE (Homo sapiens, UniProt P24941)
T16 construct: purchased Millipore, Inc. (KinaseProfiler service)
Method in brief: as §1

IKKbeta = target: T17, IKKbeta (Homo sapiens, UniProt O14920)
T17 construct: purchased Millipore, Inc. (KinaseProfiler service)
Method in brief: as §1

AKT1 = target: T18, AKT1 (Homo sapiens, UniProt P31749)
T18 construct: purchased Millipore, Inc. (KinaseProfiler service)
Method in brief: as §1

CHK2 = target: T19, CHK2 (Homo sapiens, UniProt O96017)
T19 construct: purchased Millipore, Inc. (KinaseProfiler service)
Method in brief: as §1

CK2alpha2 = target: T20, CK2alpha2 (Homo sapiens, UniProt P19784)
T20 construct: purchased Millipore, Inc. (KinaseProfiler service)
Method in brief: as §1

KDR = target: T21, KDR (Homo sapiens, UniProt P35968)
T21 construct: purchased Millipore, Inc. (KinaseProfiler service)
Method in brief: as §1

TSSK2 = target: T22, TSSK2 (Homo sapiens, UniProt Q96PF2)
T22 construct: purchased Millipore, Inc. (KinaseProfiler service)
Method in brief: as §1

PKCepsilon = target: T23, PKCepsilon (Homo sapiens, UniProt Q02156)
T23 construct: purchased Millipore, Inc. (KinaseProfiler service)
Method in brief: as §1

PrKX = target: T24, PrKX (Homo sapiens, UniProt P51817)
T24 construct: purchased Millipore, Inc. (KinaseProfiler service)
Method in brief: as §1

AMPK(A1/B1/G1) = target: T25, AMPK(A1/B1/G1) (Homo sapiens, UniProt Q13131)
T25 construct: purchased Millipore, Inc. (KinaseProfiler service)
Method in brief: as §1

Flt4 = target: T26, Flt4 (Homo sapiens, UniProt P35916)
T26 construct: purchased Millipore, Inc. (KinaseProfiler service)
Method in brief: as §1

CLK2 = target: T27, CLK2 (Homo sapiens, UniProt P49760)
T27 construct: purchased Millipore, Inc. (KinaseProfiler service)
Method in brief: as §1

NEK7 = target: T28, NEK7 (Homo sapiens, UniProt Q8TDX7)
T28 construct: purchased Millipore, Inc. (KinaseProfiler service)
Method in brief: as §1

IRAK4 = target: T29, IRAK4 (Homo sapiens, UniProt Q9NWZ3)
T29 construct: purchased Millipore, Inc. (KinaseProfiler service)
Method in brief: as §1

eEF-2K = target: T30, eEF-2K (Homo sapiens, UniProt O00418)
T30 construct: purchased Millipore, Inc. (KinaseProfiler service)
Method in brief: as §1

ERK2 = target: T31, ERK2 (Homo sapiens, UniProt P28482)
T31 construct: purchased Millipore, Inc. (KinaseProfiler service)
Method in brief: as §1

ZAP-70 = target: T32, ZAP-70 (Homo sapiens, UniProt P43403)
T32 construct: purchased Millipore, Inc. (KinaseProfiler service)
Method in brief: as §1

ALK4 = target: T33, ALK4 (Homo sapiens, UniProt P36896)
T33 construct: purchased Millipore, Inc. (KinaseProfiler service)
Method in brief: as §1

SRC = target: T34, SRC (Homo sapiens, UniProt P12931)
T34 construct: purchased Millipore, Inc. (KinaseProfiler service)
Method in brief: as §1

Yes = target: T35, Yes (Homo sapiens, UniProt P07947)
T35 construct: purchased Millipore, Inc. (KinaseProfiler service)
Method in brief: as §1

CDK9/cyclinT1 = target: T36, CDK9/cyclinT1 (Homo sapiens, UniProt P50750)
T36 construct: purchased Millipore, Inc. (KinaseProfiler service)
Method in brief: as §1

CK2 = target: T37, CK2 (Homo sapiens, UniProt P68400)
T37 construct: purchased Millipore, Inc. (KinaseProfiler service)
Method in brief: as §1

KIT = target: T38, KIT (Homo sapiens, UniProt P10721)
T38 construct: purchased Millipore, Inc. (KinaseProfiler service)
Method in brief: as §1

FAK = target: T39, FAK (Homo sapiens, UniProt Q05397)
T39 construct: purchased Millipore, Inc. (KinaseProfiler service)
Method in brief: as §1

Plk2 = target: T40, Plk2 (Homo sapiens, UniProt Q9NYY3)
T40 construct: purchased Millipore, Inc. (KinaseProfiler service)
Method in brief: as §1

SRPK1 = target: T41, SRPK1 (Homo sapiens, UniProt Q96SB4)
T41 construct: purchased Millipore, Inc. (KinaseProfiler service)
Method in brief: as §1

T29 sequence (Q9NWZ3 whole entry): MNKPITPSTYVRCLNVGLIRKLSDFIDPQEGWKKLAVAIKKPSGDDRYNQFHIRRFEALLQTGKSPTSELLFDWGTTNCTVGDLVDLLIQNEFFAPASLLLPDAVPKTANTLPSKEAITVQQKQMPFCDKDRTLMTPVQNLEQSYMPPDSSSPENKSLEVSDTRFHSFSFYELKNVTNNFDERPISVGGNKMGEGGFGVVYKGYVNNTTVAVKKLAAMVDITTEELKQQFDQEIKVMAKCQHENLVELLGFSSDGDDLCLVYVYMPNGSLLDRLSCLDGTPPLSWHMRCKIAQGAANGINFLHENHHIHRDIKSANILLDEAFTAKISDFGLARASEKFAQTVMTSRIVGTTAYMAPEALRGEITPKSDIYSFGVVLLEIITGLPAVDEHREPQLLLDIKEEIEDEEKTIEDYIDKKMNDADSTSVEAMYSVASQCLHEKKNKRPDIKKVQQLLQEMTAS
T9 sequence (Q15759 whole entry): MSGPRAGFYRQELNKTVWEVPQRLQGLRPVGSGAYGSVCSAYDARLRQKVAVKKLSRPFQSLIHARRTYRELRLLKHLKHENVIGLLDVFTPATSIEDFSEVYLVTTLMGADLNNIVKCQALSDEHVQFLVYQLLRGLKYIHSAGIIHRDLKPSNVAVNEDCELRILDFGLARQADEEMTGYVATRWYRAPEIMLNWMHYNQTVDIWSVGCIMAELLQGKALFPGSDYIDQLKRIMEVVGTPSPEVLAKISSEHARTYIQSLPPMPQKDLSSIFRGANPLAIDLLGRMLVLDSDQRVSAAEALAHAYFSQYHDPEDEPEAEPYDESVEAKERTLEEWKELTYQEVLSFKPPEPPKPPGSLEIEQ
T3 sequence (Q99683 whole entry): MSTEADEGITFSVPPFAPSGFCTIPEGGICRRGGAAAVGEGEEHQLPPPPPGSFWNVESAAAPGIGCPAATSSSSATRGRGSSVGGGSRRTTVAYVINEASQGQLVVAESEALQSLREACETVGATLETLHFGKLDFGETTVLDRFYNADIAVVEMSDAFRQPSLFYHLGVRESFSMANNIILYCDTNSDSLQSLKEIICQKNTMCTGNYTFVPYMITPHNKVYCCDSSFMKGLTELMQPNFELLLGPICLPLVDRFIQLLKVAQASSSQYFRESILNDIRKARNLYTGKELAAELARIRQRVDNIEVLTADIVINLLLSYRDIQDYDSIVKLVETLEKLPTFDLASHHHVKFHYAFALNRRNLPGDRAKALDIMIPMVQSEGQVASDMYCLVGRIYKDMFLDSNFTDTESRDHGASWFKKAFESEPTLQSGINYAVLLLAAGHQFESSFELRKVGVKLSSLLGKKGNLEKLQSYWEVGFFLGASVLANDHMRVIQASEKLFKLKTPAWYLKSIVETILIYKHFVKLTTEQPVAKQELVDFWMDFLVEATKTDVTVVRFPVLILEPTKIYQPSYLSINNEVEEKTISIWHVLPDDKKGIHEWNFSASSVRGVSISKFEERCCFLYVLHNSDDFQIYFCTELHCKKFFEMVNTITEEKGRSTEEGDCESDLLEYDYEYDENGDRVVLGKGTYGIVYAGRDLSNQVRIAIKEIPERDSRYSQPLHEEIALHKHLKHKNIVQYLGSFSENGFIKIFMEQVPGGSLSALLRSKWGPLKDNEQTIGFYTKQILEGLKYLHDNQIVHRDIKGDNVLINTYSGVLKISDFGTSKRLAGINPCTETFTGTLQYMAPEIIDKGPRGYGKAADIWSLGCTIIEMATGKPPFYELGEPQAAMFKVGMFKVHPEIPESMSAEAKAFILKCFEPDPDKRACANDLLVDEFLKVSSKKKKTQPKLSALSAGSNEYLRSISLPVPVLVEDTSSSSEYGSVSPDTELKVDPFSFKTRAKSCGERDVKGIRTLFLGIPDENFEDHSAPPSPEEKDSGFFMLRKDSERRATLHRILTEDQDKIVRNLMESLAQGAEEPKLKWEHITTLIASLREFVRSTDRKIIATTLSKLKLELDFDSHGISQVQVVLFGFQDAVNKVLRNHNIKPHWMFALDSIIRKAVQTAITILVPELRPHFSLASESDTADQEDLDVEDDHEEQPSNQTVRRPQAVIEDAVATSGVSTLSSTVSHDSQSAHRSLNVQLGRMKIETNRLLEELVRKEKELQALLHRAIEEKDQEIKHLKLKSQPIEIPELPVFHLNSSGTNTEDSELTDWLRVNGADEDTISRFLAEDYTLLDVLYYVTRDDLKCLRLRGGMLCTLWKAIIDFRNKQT
T7 sequence (Q8IU85 whole entry): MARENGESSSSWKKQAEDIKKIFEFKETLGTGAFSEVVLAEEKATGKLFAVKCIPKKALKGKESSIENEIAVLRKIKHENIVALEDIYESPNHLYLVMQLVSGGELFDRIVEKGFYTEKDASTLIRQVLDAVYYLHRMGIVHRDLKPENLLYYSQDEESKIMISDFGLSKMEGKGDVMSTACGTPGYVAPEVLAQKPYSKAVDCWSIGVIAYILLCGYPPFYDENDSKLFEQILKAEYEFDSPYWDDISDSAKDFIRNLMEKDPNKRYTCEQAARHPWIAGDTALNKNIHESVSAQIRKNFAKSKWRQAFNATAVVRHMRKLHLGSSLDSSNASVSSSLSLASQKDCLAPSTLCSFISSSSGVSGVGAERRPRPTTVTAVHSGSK
T18 sequence (P31749 whole entry): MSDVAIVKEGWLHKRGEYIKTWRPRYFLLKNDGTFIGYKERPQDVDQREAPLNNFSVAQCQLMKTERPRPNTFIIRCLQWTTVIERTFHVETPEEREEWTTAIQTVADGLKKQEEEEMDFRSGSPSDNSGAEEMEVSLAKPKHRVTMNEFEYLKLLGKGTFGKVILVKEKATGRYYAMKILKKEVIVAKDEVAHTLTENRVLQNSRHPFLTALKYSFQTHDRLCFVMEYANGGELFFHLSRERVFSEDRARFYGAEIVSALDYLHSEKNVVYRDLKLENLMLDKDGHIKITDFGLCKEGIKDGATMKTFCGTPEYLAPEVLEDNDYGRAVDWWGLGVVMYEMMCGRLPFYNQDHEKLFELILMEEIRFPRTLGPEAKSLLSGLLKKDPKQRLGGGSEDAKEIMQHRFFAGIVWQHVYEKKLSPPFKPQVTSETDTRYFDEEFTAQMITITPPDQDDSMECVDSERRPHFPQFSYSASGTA
T8 sequence (P29317 24-976): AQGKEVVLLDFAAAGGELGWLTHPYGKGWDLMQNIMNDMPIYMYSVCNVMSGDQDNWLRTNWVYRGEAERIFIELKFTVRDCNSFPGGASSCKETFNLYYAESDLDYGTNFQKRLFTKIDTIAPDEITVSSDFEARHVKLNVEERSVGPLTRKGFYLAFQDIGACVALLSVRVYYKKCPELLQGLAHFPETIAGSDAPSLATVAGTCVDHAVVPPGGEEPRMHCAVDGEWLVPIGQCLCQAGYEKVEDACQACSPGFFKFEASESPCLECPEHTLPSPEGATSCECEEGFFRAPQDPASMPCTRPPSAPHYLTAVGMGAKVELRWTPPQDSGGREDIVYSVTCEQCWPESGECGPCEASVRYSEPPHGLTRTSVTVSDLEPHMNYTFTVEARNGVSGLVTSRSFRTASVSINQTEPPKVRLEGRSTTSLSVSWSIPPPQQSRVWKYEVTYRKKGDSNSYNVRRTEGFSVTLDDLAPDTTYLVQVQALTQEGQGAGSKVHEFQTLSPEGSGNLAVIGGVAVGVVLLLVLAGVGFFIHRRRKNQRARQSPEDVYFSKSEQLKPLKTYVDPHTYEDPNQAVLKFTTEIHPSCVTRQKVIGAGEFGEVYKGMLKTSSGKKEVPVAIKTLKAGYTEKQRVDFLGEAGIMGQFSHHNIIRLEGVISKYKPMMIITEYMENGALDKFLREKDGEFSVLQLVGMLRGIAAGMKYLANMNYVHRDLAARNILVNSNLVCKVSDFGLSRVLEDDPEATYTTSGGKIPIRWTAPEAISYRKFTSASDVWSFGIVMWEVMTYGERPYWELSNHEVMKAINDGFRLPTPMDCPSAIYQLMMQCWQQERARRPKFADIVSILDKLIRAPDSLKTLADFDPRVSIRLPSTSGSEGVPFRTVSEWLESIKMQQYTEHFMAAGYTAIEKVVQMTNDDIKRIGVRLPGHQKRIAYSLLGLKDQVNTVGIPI
T15 sequence (Q6PHR2 whole entry): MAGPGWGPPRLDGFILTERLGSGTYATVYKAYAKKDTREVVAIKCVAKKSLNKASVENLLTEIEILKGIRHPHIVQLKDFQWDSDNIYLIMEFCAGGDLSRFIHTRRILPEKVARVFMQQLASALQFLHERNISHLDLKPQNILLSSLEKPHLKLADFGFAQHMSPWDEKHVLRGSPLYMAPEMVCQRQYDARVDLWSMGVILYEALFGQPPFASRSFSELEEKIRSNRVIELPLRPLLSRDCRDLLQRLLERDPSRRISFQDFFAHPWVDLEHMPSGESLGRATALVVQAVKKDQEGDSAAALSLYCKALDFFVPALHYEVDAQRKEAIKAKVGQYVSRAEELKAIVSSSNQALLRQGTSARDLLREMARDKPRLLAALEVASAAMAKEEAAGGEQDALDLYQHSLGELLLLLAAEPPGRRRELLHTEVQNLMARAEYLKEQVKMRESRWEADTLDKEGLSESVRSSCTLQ

COCc1ccc2cccc(NC(=O)Nc3c(C)c(-c4cnn(C)c4)nn3-c3ccccc3)c2c1 [Example 16, 1-(1′,4-dimethyl-1-phenyl-1H,1′H-[3,4′-bipyrazol]-5-yl)-3-(7-(methoxymethyl)naphthalen-1-yl)urea]
Avg POC (CAMK2b): 105 POC
Avg POC (Pim-2): 141.5 POC
Avg POC (MAP3K5): 112.5 POC
Avg POC (CAMK2g): 98 POC
Avg POC (AKT3): 130.5 POC
Avg POC (MARK2): 114 POC
Avg POC (CAMK1d): 134.5 POC
Avg POC (EphA2): 123.5 POC
Avg POC (p38beta): 117 POC
Avg POC (Bmx): 125 POC
Avg POC (Pim-3): 113.5 POC
Avg POC (Fgr): 116 POC
Avg POC (p38alpha): 117 POC
Avg POC (PKD2): 106 POC
Avg POC (ULK3): 98.5 POC
Avg POC (CDK2/cyclinE): 143 POC
Avg POC (IKKbeta): 130.5 POC
Avg POC (AKT1): 129 POC
Avg POC (CHK2): 110.5 POC
Avg POC (CK2alpha2): 101 POC
Avg POC (KDR): 159 POC
Avg POC (TSSK2): 134 POC
Avg POC (PKCepsilon): 137 POC
Avg POC (PrKX): 134 POC
Avg POC (AMPK(A1/B1/G1)): 134.5 POC
Avg POC (Flt4): 108 POC
Avg POC (CLK2): 135 POC
Avg POC (NEK7): 123 POC
Avg POC (IRAK4): 175.5 POC
Avg POC (eEF-2K): 145.5 POC
Avg POC (ERK2): 116.5 POC
Avg POC (ZAP-70): 118 POC
Avg POC (ALK4): 104.5 POC
Avg POC (SRC): 121.5 POC
Avg POC (Yes): 107.5 POC
Avg POC (CDK9/cyclinT1): 114.5 POC
Avg POC (CK2): 114.5 POC
Avg POC (KIT): 93.5 POC
Avg POC (FAK): 113.5 POC
Avg POC (Plk2): 104.5 POC
Avg POC (SRPK1): 119 POC
